From patent US20230107642A1 (Erasca, Inc., priority 2020, published 2023)

Target: T1, Cys12 of the KRAS 4B G12C protein (Homo sapiens, UniProt P01116, G12C)
T1 construct: This protein contained 188 amino acids in total, including an N-terminal 6-Histidine tag; made in house; host or cells: E. coli BL21
Assay: In vitro covalent adduct formation (CAF) assay, LC-MS intact mass
Assay type: binding
Settings: 10 uM compound, 60 min
How it was run: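 Percent covalent modification from intact-mass LC-MS, by relative free versus adducted protein (adducts within 1 Da of expected mass). Reaction: 10 μM compound with 5 μM E. coli-expressed, GDP-exchanged KRAS 4B G12C in TBS pH 7.4, 4% DMSO, 1 h at 22° C.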

Structure (SMILES)	% CAF 10 uM @ 60 min [%]
C=CC(=O)N1CCN(c2nc(=O)n3c4c(c(-c5ccc(F)cc5)c(C(F)(F)F)cc24)SC[C@@H]3CN2CCN(C3CC3)CC2)CC1 [Example 1321, (S)-7-(4-acryloylpiperazin-1-yl)-3-((4-cyclopropylpiperazin-1-yl)methyl)-10-(4-fluorophenyl)-9-(trifluoromethyl)-2H-[1,4]thiazino[2,3,4-ij]quinazolin-5(3H)-one]	99.3
C=CC(=O)N1[C@H](C)CN(c2nc(=O)n3c4c(c(-c5cc(Br)c(F)cc5F)c(C(F)(F)F)cc24)SC[C@@H]3COC)C[C@@H]1C [Example 1443, (3S)-7-((3S,5R)-4-acryloyl-3,5-dimethylpiperazin-1-yl)-10-(5-bromo-2,4-difluorophenyl)-3-(methoxymethyl)-9-(trifluoromethyl)-2,3-dihydro-5H-[1,4]thiazino[2,3,4-ij]quinazolin-5-one]	85
C=CC(=O)N1CCN(c2nc(=O)n3c4c(c(-c5ccc(F)cc5F)c(C(F)(F)F)cc24)SC[C@@H]3COCOC)CC1 (atropisomer, axis not shown) [Example 1367, (3S,10R)-7-(4-acryloylpiperazin-1-yl)-10-(2,4-difluorophenyl)-3-((methoxymethoxy)methyl)-9-(trifluoromethyl)-2,3-dihydro-5H-[1,4]thiazino[2,3,4-ij]quinazolin-5-one]	92.4
C=CC(=O)N1CCN(c2nc(=O)n3c4c(c(-c5cc(Cl)c(F)cc5F)c(C(F)(F)F)cc24)SC[C@@H]3COCOC)CC1 (atropisomer, axis not shown) [Example 1365]	83.7
C=CC(=O)N1[C@H](C)CN(c2nc(=O)n3c4c(c(-c5ccc(F)c(Cl)c5)c(C(F)(F)F)cc24)SC[C@@H](N2CCOCC2)C3)C[C@@H]1C [Example 1386, (S)-8-((3S,5R)-4-acryloyl-3,5-dimethylpiperazin-1-yl)-11-(3-chloro-4-fluorophenyl)-3-morpholino-10-(trifluoromethyl)-3,4-dihydro-2H,6H-[1,4]thiazepino[2,3-4-ij]quinazolin-6-one]	71.6
[2H]C([2H])=C([2H])C(=O)N1[C@H](C)CN(c2nc(=O)n3c4c(c(-c5ccc(F)cc5)c(C(F)(F)F)cc24)SC[C@@H]3COC)C[C@@H]1C [Example 1366]	96.8
C=CC(=O)N1[C@H](C)CN(c2nc(=O)n3c4c(c(-c5cc(Cl)c(F)cc5F)c(C(F)(F)F)cc24)SC[C@@H]3CN(C)C)C[C@@H]1C (atropisomer, axis not shown) [Example 1376, (3S,10S)-7-((3S,5R)-4-acryloyl-3,5-dimethylpiperazin-1-yl)-10-(5-chloro-2,4-difluorophenyl)-3-((dimethylamino)methyl)-9-(trifluoromethyl)-2,3-dihydro-5H-[1,4]thiazino[2,3,4-ij]quinazolin-5-one]	83.9
C=CC(=O)N1[C@H](C)CN(c2nc(=O)n3c4c(c(-c5ccc(F)c(Cl)c5)c(C(F)(F)F)cc24)SC[C@@H]3CN2CCN(CC)CC2)C[C@@H]1C [Example 1373, (S)-7-((3S,5R)-4-acryloyl-3,5-dimethylpiperazin-1-yl)-10-(3-chloro-4-fluorophenyl)-3-((4ethylpiperazin-1-yl)methyl)-9-(trifluoromethyl)-2,3-dihydro-5H-[1,4]thiazino[2,3,4-ij]quinazolin-5-one]	66.2
C=CC(=O)N1[C@H](C)CN(c2nc(=O)n3c4c(c(-c5ccc(F)cc5F)c(C(F)(F)F)cc24)SC[C@@H]3CN2CC[C@H](F)C2)C[C@@H]1C (atropisomer, axis not shown) [Example 1428, (3S,10S)-7-((3S,5R)-4-acryloyl-3,5-dimethylpiperazin-1-yl)-10-(2,4-difluorophenyl)-3-(((S)-3-fluoropyrrolidin-1-yl)methyl)-9-(trifluoromethyl)-2,3-dihydro-5H-[1,4]thiazino[2,3,4-ij]quinazolin-5-one]	72
C=CC(=O)N1C[C@H](C)N(c2nc(=O)n3c4c(c(-c5ccc(F)cc5F)c(C(F)(F)F)cc24)SC[C@@H]3COCOC)C[C@H]1C (atropisomer, axis not shown) [Example 1327, (3S,10R)-7-((2S,5R)-4-acryloyl-3,5-dimethylpiperazin-1-yl)-10-(2,4-difluorophenyl)-3-((methoxymethoxy)methyl)-9-(trifluoromethyl)-2,3-dihydro-5H-[1,4]thiazino[2,3,4-ij]quinazolin-5-one]	86.3
C=CC(=O)N1[C@H](C)CN(c2nc(=O)n3c4c(c(-c5cc(Cl)c(F)cc5F)c(C(F)(F)F)cc24)SC[C@@H](N2CCCC2)C3)C[C@@H]1C [Example 1422, (3S)-8-((3S,5R)-4-acryloyl-3,5-dimethylpiperazin-1-yl)-11-(5-chloro-2,4-difluorophenyl)-3-(pyrrolidin-1-yl)-10-(trifluoromethyl)-3,4-dihydro-2H,6H-[1,4]thiazepino[2,3,4-ij]quinazolin-6-one]	94.1
C=CC(=O)N1[C@H](C)CN(c2nc(=O)n3c4c(c(-c5cccc6cnn(C)c56)c(C(F)(F)F)cc24)SC[C@@H]3CN2C[C@@H]3C[C@H]2CO3)C[C@@H]1C [Example 1385, (3S)-3-(((1S,4S)-2-oxa-5-azabicyclo[2.2.1]heptan-5-yl)methyl)-7-((3S,5R)-4-acryloyl-3,5-dimethylpiperazin-1-yl)-10-(1-methyl-1H-indazol-7-yl)-9-(trifluoromethyl)-2,3-dihydro-5H-[1,4]thiazino[2,3,4-ij]quinazolin-5-one]	92.5
C=CC(=O)N1C[C@H](C)N(c2nc(=O)n3c4c(c(-c5cc(C(OC)OC)c(F)cc5F)c(C(F)(F)F)cc24)SCC2(COC2)C3)C[C@H]1C [Example 1426, 8′-((2S,5R)-4-acryloyl-2,5-dimethylpiperazin-1-yl)-11′-(5-(dimethoxymethyl)-2,4-difluorophenyl)-10′-(trifluoromethyl)-2′H,4′H,6′H-spiro[oxetane-3,3′-[1,4]thiazepino[2,3,4-ij]quinazolin]-6′-one]	76

Same assay, conditions: 10 uM compound, 60 min incubation

Structure (SMILES)	% CAF 10 uM @ 60 min [%]
C=CC(=O)N1[C@H](C)CN(c2nc(=O)n3c4c(c(-c5cc(Cl)c(F)cc5F)c(C(F)(F)F)cc24)SC[C@H](N2CCOCC2)C3)C[C@@H]1C (atropisomer, axis not shown) [Example 1114, (3R,11R)-8-((3S,5R)-4-acryloyl-3,5-dimethylpiperazin-1-yl)-11-(5-chloro-2,4-difluorophenyl)-3-morpholino-10-(trifluoromethyl)-3,4-dihydro-2H,6H-[1,4]thiazepino [2,3,4-ij]quinazolin-6-one]	71.7

Same assay, conditions: 10 μM compound, after 1 hour

Structure (SMILES)	CAF (% after 1 hour) [%]
C=CC(=O)N1[C@H](C)CN(c2nc(=O)n3c4c(c(-c5cc(Cl)c(F)cc5F)c(C(F)(F)F)cc24)SCC2(CN(CC(F)(F)F)C2)C3)C[C@@H]1C [Example 1241, 8′-((3S,5R)-4-acryloyl-3,5-dimethylpiperazin-1-yl)-11′-(5-chloro-2,4-difluorophenyl)-1-(2,2,2-trifluoroethyl)-10′-(trifluoromethyl)-2′H,4′H,6′H-spiro[azetidine-3,3′-[1,4]thiazepino[2,3,4-ij]quinazolin]-6′-one]	91
C=CC(=O)N1[C@H](C)CN(c2nc(=O)n3c4c(c(-c5ccc(F)cc5F)c(C(F)(F)F)cc24)SC[C@@H](OCC)C3)C[C@@H]1C [Example 1205, (3S)-8-((3S,5R)-4-acryloyl-3,5-dimethylpiperazin-1-yl)-11-(2,4-difluorophenyl)-3-ethoxy-10-(trifluoromethyl)-3,4-dihydro-2H,6H-[1,4]thiazepino[2,3,4-ij]quinazolin-6-one]	95
C=CC(=O)N1[C@H](C)CN(c2nc(=O)n3c4c(c(-c5cc(Cl)c(F)cc5F)c(C(F)(F)F)cc24)SCC2(CC(=O)C2)C3)C[C@@H]1C [Example 1243, 8′-((3S,5R)-4-acryloyl-3,5-dimethylpiperazin-1-yl)-11′-(5-chloro-2,4-difluorophenyl)-10′-(trifluoromethyl)-2′H,4′H,6′H-spiro[cyclobutane-1,3′-[1,4]thiazepino[2,3,4-ij]quinazoline]-3,6′-dione]	92
C=CC(=O)N1[C@H](C)CN(c2nc(=O)n3c4c(c(-c5cc(Cl)c(F)cc5F)c(C(F)(F)F)cc24)SC[C@@H](Oc2cc(C)on2)C3)C[C@@H]1C [Example 1231, (3S,11S)-8-((3S,5R)-4-acryloyl-3,5-dimethylpiperazin-1-yl)-11-(5-chloro-2,4-difluorophenyl)-3-((5-methylisoxazol-3-yl)oxy)-10-(trifluoromethyl)-3,4-dihydro-2H,6H-[1,4]thiazepino[2,3,4-ij]quinazolin-6-one]	38

Same assay, conditions: after 60 min

Structure (SMILES)	CAF (% binding after 60 min) [%]
C=CC(=O)N1[C@H](C)CN(c2nc(=O)n3c4c(c(-c5ccc(F)cc5)c(C(F)(F)F)cc24)SC[C@@H](OCCOC)C3)C[C@@H]1C [Example 1025, (S)-8-((3S,5R)-4-acryloyl-3,5-dimethylpiperazin-1-yl)-11-(4-fluorophenyl)-3-(2-methoxyethoxy)-10-(trifluoromethyl)-3,4-dihydro-2H,6H-[1,4]thiazepino[2,3,4-ij]quinazolin-6-one]	96
C=CC(=O)N1[C@H](C)CN(c2nc(=O)n3c4c(c(-c5ccc(F)c(Cl)c5)c(C(F)(F)F)cc24)SC[C@@H](OCOC)C3)C[C@@H]1C [Example 1014, (S)-8-((3S,5R)-4-acryloyl-3,5-dimethylpiperazin-1-yl)-11-(3-chloro-4-fluorophenyl)-3-(methoxymethoxy)-10-(trifluoromethyl)-3,4-dihydro-2H,6H-[1,4]thiazepino[2,3,4-ij]quinazolin-6-one]	96
